This assay addresses T1, rat NaP2b (SLC34A2) (Rattus norvegicus, UniProt Q9JJ09).
T1 construct: host or cells: HEK293
T1 sequence (Q9JJ09 1-695): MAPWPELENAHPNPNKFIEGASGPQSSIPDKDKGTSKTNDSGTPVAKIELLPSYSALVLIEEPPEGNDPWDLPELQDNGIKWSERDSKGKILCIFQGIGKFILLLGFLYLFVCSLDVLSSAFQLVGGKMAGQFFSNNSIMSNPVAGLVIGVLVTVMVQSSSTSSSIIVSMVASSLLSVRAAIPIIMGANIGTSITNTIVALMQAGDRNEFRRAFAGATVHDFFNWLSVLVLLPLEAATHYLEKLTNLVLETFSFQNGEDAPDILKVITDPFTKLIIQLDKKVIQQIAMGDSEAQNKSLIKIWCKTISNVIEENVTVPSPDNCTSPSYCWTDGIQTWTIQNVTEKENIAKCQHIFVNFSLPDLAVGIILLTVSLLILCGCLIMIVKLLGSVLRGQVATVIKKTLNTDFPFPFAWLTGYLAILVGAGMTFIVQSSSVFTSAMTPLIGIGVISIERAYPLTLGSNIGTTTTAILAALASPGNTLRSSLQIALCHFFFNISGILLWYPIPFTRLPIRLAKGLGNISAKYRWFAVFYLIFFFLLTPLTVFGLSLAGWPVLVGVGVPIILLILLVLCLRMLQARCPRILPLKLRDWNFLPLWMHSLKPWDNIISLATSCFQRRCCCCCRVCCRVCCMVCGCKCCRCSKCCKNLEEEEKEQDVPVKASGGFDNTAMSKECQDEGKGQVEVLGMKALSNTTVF
Nature of the assay: Inhibition of NaP2b-mediated Pi (33P) uptake in transfected HEK293 cells, rat NaP2b. The class given is cell-based. Particulars: 33P Pi uptake, 0.1 mM phosphate, value given as pIC50 range. In short, it runs like this:
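HEK293 cells were transiently transfected with NaP2b cDNA using Lipofectamine and grown near confluence. Compounds were tested at twelve concentrations from 0.1 nM to 30 uM in duplicate, and 33P-phosphate uptake was counted by scintillation after lysis. Results are expressed as pIC50.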

As a reminder, the IC50 is the concentration at which inhibition is half-maximal. Higher therefore signals lower potency.

SMILES strings stand for the structures.

`CCN(CC)c1ccc(NC(=O)c2cccc(CCCOCCOCCOCCOCCNS(=O)(=O)c3ccc(C(=O)N4CCN(CCOCCOCCOCCOCCOCCOCCOC)C(=O)C4)cc3)c2)c(-c2cc(C(=O)NCc3cccc(C(F)(F)F)c3)ccn2)c1` [Example 288, 2-(2-(3-(1-(4-(4-(2,5,8,11,14,17,20-heptaoxadocosan-22-yl)-3-oxopiperazine-1-carbonyl)phenylsulfonamido)-3,6,9,12-tetraoxapentadecan-15-yl)benzamido)-5-(diethylamino)phenyl)-N-(3-(trifluoromethyl)benzyl)isonicotinamide]: the half-inhibitory concentration (IC50) is 1000 to 7940 nM.

In turn, `CCN(CC)c1ccc(NC(=O)c2cccc(CCCOCCOCCOCCOCCNS(=O)(=O)c3ccc(CCC(=O)N(CCOC)CCOCCOCCOCCOCCOCCOCCOC)cc3)c2)c(-c2cc(C(=O)NCc3cccc(C(F)(F)F)c3)ccn2)c1` [Example 295, 2-(5-(diethylamino)-2-(3-(1-(4-(23-(2-methoxyethyl)-24-oxo-2,5,8,11,14,17,20-heptaoxa-23-azahexacosan-26-yl)phenylsulfonamido)-3,6,9,12-tetraoxapentadecan-15-yl)benzamido)phenyl)-N-(3-(trifluoromethyl)benzyl)isonicotinamide] had an IC50 of 1000 to 7940 nM.

Regarding `CCN(CC)c1ccc(NC(=O)c2cccc(CCCOCCOCCOCCOCCNS(=O)(=O)c3ccc(CCC(=O)NCCOCCOCCOCCOCCOCCOCCOC)cc3)c2)c(-c2cc(C(=O)NCc3cccc(C(F)(F)F)c3)ccn2)c1` [Example 296, 2-(5-(diethylamino)-2-(3-(1-(4-(24-oxo-2,5,8,11,14,17,20-heptaoxa-23-azahexacosan-26-yl)phenylsulfonamido)-3,6,9,12-tetraoxapentadecan-15-yl)benzamido)phenyl)-N-(3-(trifluoromethyl)benzyl)isonicotinamide], the IC50 is 1000 to 7940 nM.

Compound `CCN(CC)c1ccc(NC(=O)c2cccc(CCCOCCOCCOCCOCCNS(=O)(=O)c3ccc(CCC(=O)O)cc3)c2)c(-c2cc(C(=O)N[C@H]3CCCc4ccccc43)ccn2)c1` [Example 320] gave an IC50 of less than 1000 nM.

In turn, `CCN(CC)c1ccc(NC(=O)c2cccc(CCCOCCOCCOCCOCCNC(=O)C34CC5CC(CC(C5)C3)C4)c2)c(-c2cc(C(=O)N[C@H]3CCCc4ccccc43)ccn2)c1` [Example 322] had an IC50 of 1000 to 7940 nM.

Compound `CCN(CC)c1ccc(NC(=O)c2cccc(CCCOCCOCCOCCOCCNC(=O)c3cc[nH]n3)c2)c(-c2cc(C(=O)N[C@H]3CCCc4ccccc43)ccn2)c1` [Example 323] gave an IC50 of less than 1000 nM.

`CCN(CC)c1ccc(NC(=O)c2cccc(CCCOCCOCCOCCOCCNC(=O)c3cccnc3)c2)c(-c2cc(C(=O)N[C@H]3CCCc4ccccc43)ccn2)c1` [Example 324] showed a concentration for half-maximal inhibition (IC50) of less than 1000 nM.

`CCN(CC)c1ccc(NC(=O)c2cccc(CCCOCCOCCOCCOCCNC(=O)c3ccc(O)cc3)c2)c(-c2cc(C(=O)N[C@H]3CCCc4ccccc43)ccn2)c1` [Example 325]: the IC50 was less than 1000 nM.

`CCN(CC)c1ccc(NC(=O)c2cccc(CCCOCCOCCOCCOCCNC(=O)c3cscn3)c2)c(-c2cc(C(=O)N[C@H]3CCCc4ccccc43)ccn2)c1` [Example 326] had an IC50 of less than 1000 nM.

`CN(CCOCCOCCOCCC(=O)OC(C)(C)C)CCN(C)C(=O)c1cccc(C(=O)Nc2ccc(N3CCCCC3)cc2-c2cc(C(=O)N[C@H]3CCCc4ccccc43)ccn2)c1` [Example 329, tert-butyl 3-methyl-1-[N-methyl-1-(3-{[4-(piperidin-1-yl)-2-(4-{[(1S)-1,2,3,4-tetrahydronaphthalen-1-yl]carbamoyl}pyridin-2-yl)phenyl]carbamoyl}phenyl)formamido]-6,9,12-trioxa-3-azapentadecan-15-oate] had a half-inhibitory concentration (IC50) of 1000 to 7940 nM.

The compound `CCN(CC)c1ccc(NC(=O)c2cccc(CCCOCCOCCOCC[N+](CC)(CC)CC)c2)c(-c2cc(C(=O)NCc3cccc(C(F)(F)F)c3)ccn2)c1` [Example 330, 2-(2-(2-(3-(3-(4-(diethylamino)-2-(4-(3-(trifluoromethyl)benzylcarbamoyl)pyridin-2-yl)phenylcarbamoyl)phenyl)propoxy)ethoxy)ethoxy)-N,N,N-triethylethanaminium] gave an IC50 of 1000 to 7940 nM.

In the case of `CCN(CC)c1ccc(NC(=O)c2ccc(CCCOCCOCCOCC[N+]34CCC(CC3)CC4)cc2)c(-c2cc(C(=O)NCc3cccc(C(F)(F)F)c3)ccn2)c1` [Example 331, 1-(2-(2-(2-(3-(4-(4-(diethylamino)-2-(4-(3-(trifluoromethyl)benzylcarbamoyl)pyridin-2-yl)phenylcarbamoyl)phenyl)propoxy)ethoxy)ethoxy)ethyl)-1-azonia-bicyclo[2.2.2]octane], the “pIC50 range for rat Nap2b” value was 5.1-6.0.

Compound `COCCOCCOCCOCCOCCOCCOCCN(C)C(=O)C1CCN(CCN(C)C(=O)c2cccc(C(=O)Nc3ccc(N4CCCCC4)cc3-c3cc(C(=O)N[C@H]4CCCc5ccccc54)ccn3)c2)CC1` [Example 334, (S)—N^1-(2-(4-(2,5,8,11,14,17,20-Heptaoxadocosan-22-yl(methyl)carbamoyl)piperidin-1-yl)ethyl)-N1-methyl-N3-(4-(piperidin-1-yl)-2-(4-(1,2,3,4-tetrahydronaphthalen-1-ylcarbamoyl)pyridin-2-yl)phenyl)isophthalamide] had a half-maximal inhibitory concentration (IC50) of 10000 to 31600 nM.

`CCN(CC)c1ccc(NC(=O)c2cccc(C(=O)N(C)CCN(C)CCOCCOCCOCCNC(C)=O)c2)c(-c2cc(C(=O)N[C@H]3CCCc4ccccc43)ccn2)c1` [Example 341, (S)—N^1-(4-(Diethylamino)-2-(4-(1,2,3,4-tetrahydronaphthalen-1-ylcarbamoyl)pyridin-2-yl)phenyl)-N^3-methyl-N^3-(3-methyl-16-oxo-6,9,12-trioxa-3,15-diazaheptadecyl)isophthalamide] had an IC50 of 1000 to 7940 nM.

Compound `CCN(CC)c1ccc(NC(=O)c2cccc(C(=O)N(C)CCN(C)CCOCCOCCOCCNC(=O)c3cccnc3)c2)c(-c2cc(C(=O)N[C@H]3CCCc4ccccc43)ccn2)c1` [Example 342, (S)—N^1-(4-(Diethylamino)-2-(4-(1,2,3,4-tetrahydronaphthalen-1-ylcarbamoyl)pyridin-2-yl)phenyl)-N^3-methyl-N^3-(14-methyl-1-oxo-1-(pyridin-3-yl)-5,8,11-trioxa-2,14-diazahexadecan-16-yl)isophthalamide] gave an IC50 of 1000 to 7940 nM.

Consider `CCN(CC)c1ccc(NC(=O)c2cccc(C(=O)N(C)CCN(C)CCOCCOCCOCCNC(=O)C3CCOCC3)c2)c(-c2cc(C(=O)N[C@H]3CCCc4ccccc43)ccn2)c1` [Example 343, (S)—N^1-(4-(Diethylamino)-2-(4-(1,2,3,4-tetrahydronaphthalen-1-ylcarbamoyl)pyridin-2-yl)phenyl)-N^3-methyl-N^3-(14-methyl-1-oxo-1-(tetrahydro-2H-pyran-4-yl)-5,8,11-trioxa-2,14-diazahexadecan-16-yl)isophthalamide], for which the IC50 was 1000 to 7940 nM.

The compound `CCN(CC)c1ccc(NC(=O)c2cccc(C(=O)N(C)CCN(C)CCOCCOCCOCCNC(=O)c3cscn3)c2)c(-c2cc(C(=O)N[C@H]3CCCc4ccccc43)ccn2)c1` [Example 344, (S)—N-(4-(Diethylamino)-2-(4-(1,2,3,4-tetrahydronaphthalen-1-ylcarbamoyl)pyridin-2-yl)phenyl)-N^3-methyl-N^3-(14-methyl-1-oxo-1-(thiazol-4-yl)-5,8,11-trioxa-2,14-diazahexadecan-16-yl)isophthalamide] had an IC50 of less than 1000 nM.

The record behind these values is US20140023611A1 (priority 2010, published 2014).
